Measurements reported in ChEMBL document CHEMBL1201862, “PubChem BioAssay data set” (2004).
Several values for one entry are separate records, joined by “and”; a condition that tells them apart may be missing. Identical values can stand only once. Activity calls are given as the source filed them.

Columns and labels:
Procathepsin L = Procathepsin L (Homo sapiens, UniProt P07711)
Aspartyl aminopeptidase = target: T1, Aspartyl aminopeptidase (Plasmodium falciparum 3D7, UniProt Q8I2J3)
T1 sequence (Q8I2J3 whole entry): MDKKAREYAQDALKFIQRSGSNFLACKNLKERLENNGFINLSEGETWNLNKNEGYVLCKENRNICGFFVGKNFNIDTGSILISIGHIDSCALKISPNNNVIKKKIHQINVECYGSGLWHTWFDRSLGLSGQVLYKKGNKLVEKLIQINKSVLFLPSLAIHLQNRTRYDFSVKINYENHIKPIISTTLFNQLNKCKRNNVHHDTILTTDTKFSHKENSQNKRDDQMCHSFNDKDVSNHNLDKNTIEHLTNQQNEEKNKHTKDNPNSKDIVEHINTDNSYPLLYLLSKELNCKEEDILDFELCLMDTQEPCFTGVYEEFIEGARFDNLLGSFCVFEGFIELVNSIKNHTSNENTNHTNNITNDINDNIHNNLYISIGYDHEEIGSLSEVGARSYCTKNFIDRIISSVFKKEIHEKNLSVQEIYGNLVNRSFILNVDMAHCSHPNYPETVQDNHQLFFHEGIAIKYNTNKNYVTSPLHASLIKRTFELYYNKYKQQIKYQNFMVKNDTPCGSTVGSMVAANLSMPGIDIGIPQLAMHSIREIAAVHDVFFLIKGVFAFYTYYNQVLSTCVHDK

[1] = A cytotoxicity screen of small molecule inhibitors of the PhoP region in Salmonella typhi identified in the primary screen. [Related pubchem assays: 1850, 1864, 1985 ]; type: functional
Estrogen receptor = target: T2, Estrogen receptor (Homo sapiens, UniProt P03372); experiment: potentiators of ERα–SRC-1 coactivator binding, dose response, biochemical, TR-FRET, ERα LBD (AID 737)
T2 sequence (P03372 whole entry): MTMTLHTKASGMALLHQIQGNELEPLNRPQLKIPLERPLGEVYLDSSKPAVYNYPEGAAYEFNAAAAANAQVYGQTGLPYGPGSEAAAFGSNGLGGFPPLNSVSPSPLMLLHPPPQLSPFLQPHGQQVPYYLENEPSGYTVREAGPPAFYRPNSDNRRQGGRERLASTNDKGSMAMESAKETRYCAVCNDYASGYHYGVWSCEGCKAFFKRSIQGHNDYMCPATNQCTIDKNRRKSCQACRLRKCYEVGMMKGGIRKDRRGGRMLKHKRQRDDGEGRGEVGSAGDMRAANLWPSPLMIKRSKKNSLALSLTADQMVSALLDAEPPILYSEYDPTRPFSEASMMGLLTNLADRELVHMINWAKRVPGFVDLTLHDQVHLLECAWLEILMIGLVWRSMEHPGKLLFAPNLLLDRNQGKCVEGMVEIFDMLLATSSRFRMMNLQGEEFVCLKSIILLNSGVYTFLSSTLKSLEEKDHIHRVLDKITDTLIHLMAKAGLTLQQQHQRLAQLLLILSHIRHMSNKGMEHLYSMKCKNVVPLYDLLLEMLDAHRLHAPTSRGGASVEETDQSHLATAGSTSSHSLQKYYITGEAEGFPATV

[2] = target: Peroxisome proliferator-activated receptor gamma/Nuclear receptor coactivator 2 (Homo sapiens, UniProt P37231); type: functional;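 further: agonist potency for raising coactivator recruitment to the receptor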
[3] = target: Peroxisome proliferator-activated receptor gamma/Nuclear receptor coactivator 1 (Homo sapiens, UniProt P37231); type: functional;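 further: agonist potency as compounds enhance coactivator SRC-1 recruitment to PPARgamma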
Peroxisome proliferator-activated receptor gamma/Nuclear receptor coactivator 1, sequence (P37231 whole entry): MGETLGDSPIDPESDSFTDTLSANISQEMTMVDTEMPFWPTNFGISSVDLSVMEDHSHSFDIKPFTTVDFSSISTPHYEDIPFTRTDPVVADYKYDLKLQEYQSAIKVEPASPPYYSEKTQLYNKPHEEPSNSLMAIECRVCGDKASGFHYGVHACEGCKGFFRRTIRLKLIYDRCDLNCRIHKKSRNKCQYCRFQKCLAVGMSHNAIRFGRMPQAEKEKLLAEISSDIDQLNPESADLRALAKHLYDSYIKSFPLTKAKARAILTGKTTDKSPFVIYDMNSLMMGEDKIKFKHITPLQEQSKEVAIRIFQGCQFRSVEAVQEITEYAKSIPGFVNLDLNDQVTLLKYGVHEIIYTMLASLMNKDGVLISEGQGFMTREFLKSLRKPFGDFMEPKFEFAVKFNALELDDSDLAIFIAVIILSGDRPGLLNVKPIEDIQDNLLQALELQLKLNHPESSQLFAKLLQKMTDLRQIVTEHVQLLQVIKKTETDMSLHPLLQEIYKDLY
Peroxisome proliferator-activated receptor gamma/Nuclear receptor coactivator 1, sequence (Q15788 whole entry, further chain): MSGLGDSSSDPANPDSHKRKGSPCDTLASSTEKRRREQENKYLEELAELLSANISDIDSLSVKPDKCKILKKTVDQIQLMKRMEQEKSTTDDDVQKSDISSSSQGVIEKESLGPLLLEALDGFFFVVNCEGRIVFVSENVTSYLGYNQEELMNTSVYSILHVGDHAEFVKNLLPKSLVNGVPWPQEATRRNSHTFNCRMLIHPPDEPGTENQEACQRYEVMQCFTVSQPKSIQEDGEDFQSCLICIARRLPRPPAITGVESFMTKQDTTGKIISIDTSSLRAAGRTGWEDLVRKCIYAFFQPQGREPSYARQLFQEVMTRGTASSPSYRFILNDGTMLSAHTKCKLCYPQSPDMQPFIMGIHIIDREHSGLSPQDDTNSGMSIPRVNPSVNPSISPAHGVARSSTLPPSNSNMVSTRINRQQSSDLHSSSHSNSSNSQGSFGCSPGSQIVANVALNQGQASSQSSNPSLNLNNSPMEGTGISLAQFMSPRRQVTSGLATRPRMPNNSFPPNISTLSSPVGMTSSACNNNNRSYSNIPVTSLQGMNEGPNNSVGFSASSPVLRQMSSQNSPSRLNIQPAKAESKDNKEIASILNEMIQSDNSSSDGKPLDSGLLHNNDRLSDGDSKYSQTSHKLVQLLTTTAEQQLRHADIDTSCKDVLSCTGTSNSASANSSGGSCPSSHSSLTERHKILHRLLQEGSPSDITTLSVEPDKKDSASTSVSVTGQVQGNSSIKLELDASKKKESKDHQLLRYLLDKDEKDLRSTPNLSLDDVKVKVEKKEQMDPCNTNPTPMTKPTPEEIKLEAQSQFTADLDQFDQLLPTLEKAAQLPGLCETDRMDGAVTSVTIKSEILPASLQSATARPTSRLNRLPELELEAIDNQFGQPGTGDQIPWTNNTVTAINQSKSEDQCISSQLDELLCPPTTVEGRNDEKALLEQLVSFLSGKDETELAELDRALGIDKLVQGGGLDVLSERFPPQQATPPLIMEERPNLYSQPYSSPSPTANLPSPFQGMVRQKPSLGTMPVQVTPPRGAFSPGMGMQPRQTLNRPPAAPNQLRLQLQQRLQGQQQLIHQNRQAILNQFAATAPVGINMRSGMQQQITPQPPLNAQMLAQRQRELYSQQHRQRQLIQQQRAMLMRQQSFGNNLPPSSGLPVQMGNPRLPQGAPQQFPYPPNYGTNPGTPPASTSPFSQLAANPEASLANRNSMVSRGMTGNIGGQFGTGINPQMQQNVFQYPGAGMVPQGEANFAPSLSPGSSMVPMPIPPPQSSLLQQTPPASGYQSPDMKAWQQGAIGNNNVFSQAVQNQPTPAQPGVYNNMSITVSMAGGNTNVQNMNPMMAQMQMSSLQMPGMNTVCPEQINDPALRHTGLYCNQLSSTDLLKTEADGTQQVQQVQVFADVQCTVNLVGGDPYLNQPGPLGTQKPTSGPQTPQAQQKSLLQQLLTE

[4] = target: Peroxisome proliferator-activated receptor gamma/Nuclear receptor coactivator 3 (Homo sapiens, UniProt P37231); type: functional;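 further: agonist potency for raising coactivator recruitment to the receptor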
Peroxisome proliferator-activated receptor gamma/Nuclear receptor coactivator 3, sequence (P37231 whole entry): as the sequence (P37231 whole entry) above
Peroxisome proliferator-activated receptor gamma/Nuclear receptor coactivator 3, sequence (Q9Y6Q9 whole entry, further chain): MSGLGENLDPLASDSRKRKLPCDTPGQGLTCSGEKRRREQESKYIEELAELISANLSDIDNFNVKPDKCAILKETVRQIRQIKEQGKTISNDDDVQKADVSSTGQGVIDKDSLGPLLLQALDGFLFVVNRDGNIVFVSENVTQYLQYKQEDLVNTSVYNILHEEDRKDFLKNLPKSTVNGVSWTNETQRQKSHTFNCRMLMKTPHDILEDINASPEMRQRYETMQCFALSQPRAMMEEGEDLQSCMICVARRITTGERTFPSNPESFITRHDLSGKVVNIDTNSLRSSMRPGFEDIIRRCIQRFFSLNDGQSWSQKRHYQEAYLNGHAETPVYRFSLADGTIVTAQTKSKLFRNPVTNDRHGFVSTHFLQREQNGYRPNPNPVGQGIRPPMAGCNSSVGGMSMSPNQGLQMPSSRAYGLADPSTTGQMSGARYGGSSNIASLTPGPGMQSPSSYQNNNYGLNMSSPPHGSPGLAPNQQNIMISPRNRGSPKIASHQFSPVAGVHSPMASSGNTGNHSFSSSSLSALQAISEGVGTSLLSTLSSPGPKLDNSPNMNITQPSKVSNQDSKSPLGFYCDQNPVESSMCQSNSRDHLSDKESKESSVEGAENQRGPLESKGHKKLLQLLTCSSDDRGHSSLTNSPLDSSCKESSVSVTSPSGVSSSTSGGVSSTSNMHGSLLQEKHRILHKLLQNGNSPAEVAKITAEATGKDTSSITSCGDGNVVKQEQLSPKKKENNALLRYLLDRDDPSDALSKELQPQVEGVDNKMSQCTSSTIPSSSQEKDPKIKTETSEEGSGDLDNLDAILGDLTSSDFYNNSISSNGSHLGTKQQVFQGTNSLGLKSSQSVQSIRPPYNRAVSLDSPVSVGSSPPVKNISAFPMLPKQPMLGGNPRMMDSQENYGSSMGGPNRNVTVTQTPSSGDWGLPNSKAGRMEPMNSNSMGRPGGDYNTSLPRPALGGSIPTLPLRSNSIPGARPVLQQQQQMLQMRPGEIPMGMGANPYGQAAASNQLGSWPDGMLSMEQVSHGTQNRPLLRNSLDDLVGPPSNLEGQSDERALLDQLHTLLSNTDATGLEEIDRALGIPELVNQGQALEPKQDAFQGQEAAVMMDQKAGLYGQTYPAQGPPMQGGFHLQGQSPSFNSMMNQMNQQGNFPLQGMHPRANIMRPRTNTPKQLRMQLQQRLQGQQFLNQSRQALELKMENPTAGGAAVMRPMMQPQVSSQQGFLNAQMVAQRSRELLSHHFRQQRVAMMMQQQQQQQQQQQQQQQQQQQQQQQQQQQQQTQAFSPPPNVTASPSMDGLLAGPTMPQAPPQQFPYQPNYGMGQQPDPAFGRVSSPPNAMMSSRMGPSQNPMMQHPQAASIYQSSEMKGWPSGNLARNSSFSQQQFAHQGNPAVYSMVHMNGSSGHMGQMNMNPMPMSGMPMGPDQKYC

[5] = target: Mothers against decapentaplegic homolog 3 (Homo sapiens, UniProt P84022); experiment: Smad3 binding inhibitors, lysate ELISA, dose response, cell lysate, secondary confirmation, chemiluminescent ELISA, HEK293 lysate (AID 1058); type: functional
Mothers against decapentaplegic homolog 3, sequence (P84022 whole entry): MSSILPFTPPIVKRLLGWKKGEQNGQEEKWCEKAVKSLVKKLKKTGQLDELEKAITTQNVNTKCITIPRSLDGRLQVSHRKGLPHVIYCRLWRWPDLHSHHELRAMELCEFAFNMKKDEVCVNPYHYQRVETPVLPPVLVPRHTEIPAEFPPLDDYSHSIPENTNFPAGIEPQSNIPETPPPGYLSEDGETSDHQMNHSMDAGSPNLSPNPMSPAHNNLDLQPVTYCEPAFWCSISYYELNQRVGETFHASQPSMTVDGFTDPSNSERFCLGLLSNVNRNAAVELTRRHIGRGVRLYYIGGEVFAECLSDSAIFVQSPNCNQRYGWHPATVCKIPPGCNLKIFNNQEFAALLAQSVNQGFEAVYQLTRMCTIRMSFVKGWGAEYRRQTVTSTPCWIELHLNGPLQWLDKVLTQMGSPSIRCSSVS

[6] = Luminescence Cell-Based Dose Confirmation HTS to Identify Inhibitors of Platelet Dense Granule Release. [Related pubchem assays: 1663 (Primary HTS), 1678 (Summary of Project)]; type: functional
[7] = target: Luciferin 4-monooxygenase (Photinus pyralis, UniProt P08659); experiment: firefly luciferase enzyme inhibitors, dose response, biochemical, luminescence (AID 1891)
[8] = A Cell Based Secondary Assay To Explore Cytotoxicity of Compounds that Sensitize Mycobacterium Tuberculosis to Beta-Lactam Antibiotics.; type: functional
[9] = target: T3, Histone-lysine N-methyltransferase NSD2 (Homo sapiens, UniProt O96028); type: biochemical
T3 sequence (O96028 whole entry): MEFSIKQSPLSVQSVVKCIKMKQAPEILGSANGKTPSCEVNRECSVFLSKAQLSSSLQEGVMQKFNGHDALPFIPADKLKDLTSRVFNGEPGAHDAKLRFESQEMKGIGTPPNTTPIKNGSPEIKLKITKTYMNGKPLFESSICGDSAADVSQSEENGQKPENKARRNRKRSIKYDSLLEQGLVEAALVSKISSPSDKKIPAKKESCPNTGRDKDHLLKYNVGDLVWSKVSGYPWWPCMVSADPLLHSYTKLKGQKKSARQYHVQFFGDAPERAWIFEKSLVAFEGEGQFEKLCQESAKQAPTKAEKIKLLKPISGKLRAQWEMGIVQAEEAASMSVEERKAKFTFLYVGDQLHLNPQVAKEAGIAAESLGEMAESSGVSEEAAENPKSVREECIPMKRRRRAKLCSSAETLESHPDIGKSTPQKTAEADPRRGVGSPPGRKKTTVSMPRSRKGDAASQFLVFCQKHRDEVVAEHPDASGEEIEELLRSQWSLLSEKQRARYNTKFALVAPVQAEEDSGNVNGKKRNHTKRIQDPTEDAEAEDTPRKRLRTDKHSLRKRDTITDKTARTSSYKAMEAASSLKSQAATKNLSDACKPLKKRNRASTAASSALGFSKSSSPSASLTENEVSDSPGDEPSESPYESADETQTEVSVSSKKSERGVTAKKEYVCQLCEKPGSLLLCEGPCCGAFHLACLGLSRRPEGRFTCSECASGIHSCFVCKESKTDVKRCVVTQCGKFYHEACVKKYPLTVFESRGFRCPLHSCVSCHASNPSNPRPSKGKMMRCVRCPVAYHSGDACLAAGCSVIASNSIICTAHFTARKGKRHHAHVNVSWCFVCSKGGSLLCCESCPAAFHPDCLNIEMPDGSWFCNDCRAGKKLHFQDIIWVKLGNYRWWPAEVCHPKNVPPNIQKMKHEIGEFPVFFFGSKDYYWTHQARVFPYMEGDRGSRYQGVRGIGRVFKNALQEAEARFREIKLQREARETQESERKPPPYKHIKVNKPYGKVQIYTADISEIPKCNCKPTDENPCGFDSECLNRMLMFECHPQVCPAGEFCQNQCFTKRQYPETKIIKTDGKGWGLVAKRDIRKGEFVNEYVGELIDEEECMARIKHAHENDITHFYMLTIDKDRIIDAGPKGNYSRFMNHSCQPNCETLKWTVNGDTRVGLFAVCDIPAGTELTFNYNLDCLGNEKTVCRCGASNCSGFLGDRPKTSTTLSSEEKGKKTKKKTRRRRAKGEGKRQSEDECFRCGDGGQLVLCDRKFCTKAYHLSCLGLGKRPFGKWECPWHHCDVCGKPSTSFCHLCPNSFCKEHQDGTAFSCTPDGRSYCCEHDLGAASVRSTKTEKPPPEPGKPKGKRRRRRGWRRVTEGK

Bcl-2-like protein 1 = Bcl-2-like protein 1 (Homo sapiens, UniProt Q07817); experiment: BCL-XL inhibitors, dose response, selectivity assay for MCL1 inhibitor project, biochemical, fluorescence polarization, 1536-well (AID 2218)
[10] = target: Bifunctional protein GlmU (Mycobacterium tuberculosis, UniProt P9WMN3); experiment: Inhibitors of Mycobacterial Glucosamine-1-phosphate acetyl transferase (GlmU). Secondary screen.; parameters: species or system Mycobacterium tuberculosis H37Rv
[11] = target: T4, Induced myeloid leukemia cell differentiation protein Mcl-1 (Homo sapiens, UniProt Q07820); type: functional
T4 sequence (Q07820 whole entry): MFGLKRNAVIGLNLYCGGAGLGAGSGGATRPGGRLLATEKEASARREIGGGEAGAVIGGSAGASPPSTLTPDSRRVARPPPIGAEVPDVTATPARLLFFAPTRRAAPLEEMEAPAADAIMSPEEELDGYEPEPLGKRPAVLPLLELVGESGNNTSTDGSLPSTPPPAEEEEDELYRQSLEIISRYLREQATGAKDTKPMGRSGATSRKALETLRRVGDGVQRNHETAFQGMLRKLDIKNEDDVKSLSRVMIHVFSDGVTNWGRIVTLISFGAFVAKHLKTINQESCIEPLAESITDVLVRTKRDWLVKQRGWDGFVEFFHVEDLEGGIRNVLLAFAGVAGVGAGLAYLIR

[12] = target: T4, Induced myeloid leukemia cell differentiation protein Mcl-1; experiment: MCL1-BIM BH3 interaction inhibitors, dose response, biochemical, fluorescence polarization, BIM-BH3 peptide, 1536-well (AID 2217)
Caspase-6 = target: T5, Caspase-6 (Homo sapiens, UniProt P55212); experiment: human caspase-6 inhibitors, dose response, biochemical, VEID-R110 fluorescence, cherry-pick (AID 720632)
T5 sequence (P55212 whole entry): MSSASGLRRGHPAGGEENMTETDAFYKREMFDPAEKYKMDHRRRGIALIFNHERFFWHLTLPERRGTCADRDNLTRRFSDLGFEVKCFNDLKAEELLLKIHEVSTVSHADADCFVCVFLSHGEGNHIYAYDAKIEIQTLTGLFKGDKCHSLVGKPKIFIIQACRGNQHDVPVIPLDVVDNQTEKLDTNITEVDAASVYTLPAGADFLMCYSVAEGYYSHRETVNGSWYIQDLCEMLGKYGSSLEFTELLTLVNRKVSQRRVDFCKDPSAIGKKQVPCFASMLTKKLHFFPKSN

Aminopeptidase N = target: T6, Aminopeptidase N (Plasmodium falciparum FcB1/Columbia, UniProt O96935); experiment: P. falciparum M1AAP inhibitors, biochemical, fluorogenic H-Leu-NHMec substrate, 1536-well (AID 1445); parameters: species or system Plasmodium falciparum 3D7, 3D7
T6 sequence (O96935 whole entry): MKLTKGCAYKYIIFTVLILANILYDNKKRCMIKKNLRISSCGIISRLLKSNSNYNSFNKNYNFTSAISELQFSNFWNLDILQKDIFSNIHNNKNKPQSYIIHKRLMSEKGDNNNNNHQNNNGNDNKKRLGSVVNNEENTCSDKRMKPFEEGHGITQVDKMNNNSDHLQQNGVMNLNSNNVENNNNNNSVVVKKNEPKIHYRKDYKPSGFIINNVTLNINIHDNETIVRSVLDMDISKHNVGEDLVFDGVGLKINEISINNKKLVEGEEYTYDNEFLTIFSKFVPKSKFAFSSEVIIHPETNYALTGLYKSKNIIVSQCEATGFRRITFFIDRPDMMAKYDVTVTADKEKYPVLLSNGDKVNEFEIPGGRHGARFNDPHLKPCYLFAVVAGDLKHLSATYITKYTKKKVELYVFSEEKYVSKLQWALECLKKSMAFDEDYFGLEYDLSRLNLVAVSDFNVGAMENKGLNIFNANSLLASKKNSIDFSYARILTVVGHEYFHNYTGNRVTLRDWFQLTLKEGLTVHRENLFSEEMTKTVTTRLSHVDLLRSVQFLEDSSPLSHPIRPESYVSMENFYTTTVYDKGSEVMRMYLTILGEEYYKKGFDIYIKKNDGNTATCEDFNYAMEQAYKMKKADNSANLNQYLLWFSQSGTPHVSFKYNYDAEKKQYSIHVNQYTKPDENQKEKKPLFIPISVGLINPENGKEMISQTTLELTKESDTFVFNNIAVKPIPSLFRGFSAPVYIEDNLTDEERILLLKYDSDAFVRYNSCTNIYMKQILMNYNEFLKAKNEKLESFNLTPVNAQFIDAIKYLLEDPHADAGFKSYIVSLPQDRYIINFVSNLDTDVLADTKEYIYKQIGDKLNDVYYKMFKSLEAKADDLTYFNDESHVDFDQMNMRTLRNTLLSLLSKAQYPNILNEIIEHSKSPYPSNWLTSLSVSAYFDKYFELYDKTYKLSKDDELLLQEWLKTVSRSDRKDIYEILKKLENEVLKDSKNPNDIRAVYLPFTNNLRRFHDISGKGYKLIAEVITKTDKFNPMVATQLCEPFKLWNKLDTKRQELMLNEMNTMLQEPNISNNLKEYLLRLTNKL

[13] = target: DNA (cytosine-5)-methyltransferase 1 (Homo sapiens, UniProt P26358); experiment: DNMT1 methyltransferase inhibitors, confirmation, biochemical, fluorescent molecular beacon (AID 602386); type: functional

Procathepsin L, sequence (P07711 whole entry): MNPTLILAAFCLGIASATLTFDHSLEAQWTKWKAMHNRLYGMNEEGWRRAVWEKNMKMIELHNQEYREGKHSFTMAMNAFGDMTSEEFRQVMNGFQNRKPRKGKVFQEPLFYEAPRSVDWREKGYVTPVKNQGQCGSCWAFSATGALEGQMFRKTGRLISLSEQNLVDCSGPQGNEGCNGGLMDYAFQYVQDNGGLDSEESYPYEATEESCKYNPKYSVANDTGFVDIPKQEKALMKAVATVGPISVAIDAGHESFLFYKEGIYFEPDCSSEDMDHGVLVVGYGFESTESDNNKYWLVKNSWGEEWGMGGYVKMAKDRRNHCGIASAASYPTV

SMILES: Cc1c(C(=O)Nn2cnnc2)oc2ccccc12
- IC50 (Procathepsin L): > 59.6 µM (not active)
- IC50 (Aspartyl aminopeptidase): 0.664 µM (active)

SMILES: COC(=O)c1c(-c2cccc(C)c2)csc1N
- EC50 [1]: > 50 µM (active)

SMILES: CCOC(=O)c1c(C)[nH]c(C)c1C(=O)CSc1nnc(-c2cc(OC)c(OC)c(OC)c2)o1
- EC50 (Estrogen receptor): 12.5 µM (active)

SMILES: O=C(c1cc2c(s1)-c1ccccc1S(=O)(=O)C2)N1CCN(Cc2ccccc2)CC1
- EC50 [1]: > 50 µM (active)

SMILES: Cc1cc(C)c(C#N)c(SCc2cc3c(cc2Cl)OCO3)n1
- EC50 [2]: > 79.4 µM (not active)
- EC50 [3]: > 79.4 µM (not active)
- EC50 [4]: > 79.4 µM (not active)

SMILES: O=C(Nc1ccc([N+](=O)[O-])cc1)Nn1cnnc1
- IC50 (Procathepsin L): > 59.6 µM (not active)
- IC50 (Aspartyl aminopeptidase): 1.03 µM (active)

SMILES: COc1ccccc1C(c1cc2c(cc1O)OCO2)N1CCOCC1 (stereo not drawn)
- IC50 [5]: 35.3 µM (not active) and < 2.5 µM (not active)

SMILES: NOC(=O)C1=CC(=C(c2ccc(O)c(C(=O)ON)c2)c2ccc(O)c(C(=O)ON)c2)C=CC1=O
- IC50 [5]: 22.5 µM (not active)

SMILES: O=C(COC(=O)c1sc2ccccc2c1Cl)NC1CCCCC1
- EC50 [6]: > 112 µM (not active)
- EC50 [2]: > 79.4 µM (not active)
- EC50 [3]: > 79.4 µM (not active)
- EC50 [4]: > 79.4 µM (not active)
- EC50 [7]: > 112 µM (not active)

SMILES: COc1cc(C(=O)NC2CCCCC2)ccc1OCc1ccc(Cl)cc1Cl
- CC50 [8]: 24.7 µM (active)

SMILES: COc1cccc(-c2cc(C(=O)Nc3cc(C)nn3-c3ccccc3)no2)c1
- EC50 (Estrogen receptor): 12 µM (active)

SMILES: CCOC(=O)c1nn(-c2ccc(F)cc2)c2nc(Nc3ccccc3)cc(=O)n12
- CC50 [8]: > 40 µM (active)

SMILES: O=C(O)c1ccc(-n2cccc2/C=N\NC(=O)c2cc3cc(Br)ccc3o2)cc1
- AC50 [9]: 7.63 µM (active)
- IC50 (Bcl-2-like protein 1): > 109 µM (not active)
- IC50 [10]: 66 µM (active)
- IC50 [11]: 1.72 µM (active)
- IC50 [12]: 12.1 µM (not active)
- AC50 (Caspase-6): 0.801 µM (active)
- IC50 (Aminopeptidase N): 37.1 µM (active)
- IC50 [13]: 4.36 µM (active)
